pIC50, pKd, pKi: −log10 of the molar value.

Data set [1] deals with Retinol-binding protein 4 (Homo sapiens, UniProt P02753).
Data set [2] addresses T1, Fatty acid-binding protein, heart (Homo sapiens, UniProt P05413).
Data set [3] has as its target T2, Fatty acid-binding protein, brain (Homo sapiens, UniProt O15540).
The target of data set [4] is T3, Retinol-binding protein 1 (Homo sapiens, UniProt P09455).
T3 sequence (P09455 whole entry): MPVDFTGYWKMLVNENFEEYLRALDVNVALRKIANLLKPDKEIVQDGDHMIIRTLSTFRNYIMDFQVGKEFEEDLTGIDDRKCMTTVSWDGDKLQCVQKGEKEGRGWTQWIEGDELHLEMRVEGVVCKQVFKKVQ

Data set [5] has as its target T4, Fatty acid-binding protein, adipocyte (Homo sapiens, UniProt P15090).
Data set [6] addresses T1, Fatty acid-binding protein, heart. The source holds these as a separate data set.
In data set [7] the target is T4, Fatty acid-binding protein, adipocyte. The source holds these as a separate data set.
The target in data set [8] is T2, Fatty acid-binding protein, brain. This is another data set of the same source.
Data set [9] deals with T3, Retinol-binding protein 1. This is another data set of the same source.
Data set [10] can be described thus: in vitro. The following applies: human, liver microsomes.

The term pKd denotes the negative decadic logarithm of the Kd, by convention in mol/L. Read a high pKd as a small Kd. In data set [1], `CC1=C(/C=C/C(C)=C/C=C/C(C)=C/C(=O)N2CCOCC2)C(C)(C)CCC1` gave a pKd of 6.88.

As a reminder, the pKi is −log10 of the Ki, conventionally taken in molar units. The low end stands for a large Ki, the high end for a small Ki. In turn, `O=C(O)CCCOc1ccc(F)cc1-c1cc(-c2ccccc2C(F)(F)F)n(-c2ccccc2)n1` had a negative logarithm of the Ki (pKi) in [2] of 7.62.

As for `O=C(O)[C@H]1[C@H](c2ccccc2)[C@H](C(=O)Oc2cccc(C3=CCOCC3)c2)[C@H]1c1ccccc1`, in data set [3], the pKi is 6.08.

The compound `Cc1ccc(C2(c3noc(CN(C)Cc4cnn(C)c4)n3)CCCC2)cc1` had a pKi in [4] of 5.15.

As usually defined, the pIC50 is the IC50 on a negative log10 scale, so that one unit is a factor of ten. Higher therefore signals a small IC50. Take `O=C(O)Cc1cn(-c2ccccc2-c2nc(-c3ccc4ccccc4c3)c(-c3ccccc3)s2)nn1`: the pIC50 in data set [5] is 5.90.

As for `O=C(O)[C@H]1[C@@H](c2ccccc2)[C@H](C(=O)Oc2cccc3ccccc23)[C@@H]1c1ccccc1`, the negative-log Ki (pKi) in data set [6] is 5.44; in data set [3], 6.40.

In [7], `C=C1CC[C@@H]2[C@](C)(CO)[C@H](O)CC[C@@]2(C)[C@@H]1C/C=C1/C(=O)OC[C@H]1O` [ANDROGRAPHOLIDE] showed a negative logarithm of the IC50 (pIC50) of 6.05.

Compound `CC1=C(/C=C/C(C)=C/C=C/C(C)=C/C(=O)NCC(O)CO)C(C)(C)CCC1` (stereo not given) gave a negative logarithm of the Kd (pKd) in data set [1] of 6.88.

For the compound `O=C(O)[C@H]1[C@@H](c2ccccc2)[C@H](C(=O)Oc2ccc3ccccc3c2)[C@@H]1c1ccccc1`, the figures for the pKi in data set [6] and in data set [8] were 5.46 and 5.89, respectively.

`O=C(O)[C@H]1[C@@H](c2ccccc2)[C@H](C(=O)Nc2cccc3ccccc23)[C@@H]1c1ccccc1`: the results for the negative logarithm of the Ki (pKi) in [6] and in data set [8] were 5.59 and 5.82, respectively.

In [4], `CC(c1cccs1)N(C)Cc1nc(C(c2ccccc2)c2ccccc2)no1` (stereo not given) had a pKi of 5.15.

`COc1ccccc1[C@H]1[C@H](C(=O)O)[C@H](c2ccccc2OC)[C@H]1C(=O)Oc1ccccc1-c1ccccc1` showed a negative-log Ki (pKi) in data set [6] of 5.80.

In the case of `CC1=C(/C=C/C(C)=C/C=C/C(C)=C/C(=O)NCCO)C(C)(C)CCC1`, in [1], the pKd is 6.88.

For the compound `O=C(O)Cc1cn(-c2ccccc2-c2nc(-c3ccc(Cl)cc3)c(-c3ccccc3)s2)nn1`, the pIC50 in [5] is 5.60.

Consider `O=C(Nc1cccc2ccccc12)[C@H]1[C@H](c2ccccc2)[C@H](C(=O)Nc2cccc3ccccc23)[C@H]1c1ccccc1`, for which the pKi in [6] was below 5.00; in data set [8], 5.48.

`C=C(C)C1CCCC[C@H]1c1c(O)cc(O)cc1CCCCC` (stereo not given in full): the negative-log Ki (pKi) in data set [9] is 7.17.

With `Cc1ccc(C2(c3noc(CN(C)Cc4cccs4)n3)CCCC2)cc1`, the negative-log Ki (pKi) in [4] was 5.15.

`O=C(O)Cc1cn(-c2ccccc2-c2nc(-c3ccccc3)c(-c3ccccc3)s2)nn1` showed a pIC50 in data set [5] of 5.40.

Take `CC1=C(/C=C/C(C)=C/C=C/C(C)=C/C(=O)Nc2ccc(OCC(=O)O)cc2)C(C)(C)CCC1`: the pKd in [1] is 6.88.

What is called fraction remaining is the share of the starting amount still present when the sample was taken. In turn, `O=C(O)c1ccccc1NC(=O)N1CCC(c2ccccc2C(F)(F)F)CC1` gave an amount remaining at 0.5 h in data set [10] below 30%.

Regarding `CC1=C(/C=C/C(C)=C/C=C/C(C)=C/C(=O)Nc2ccc(N(C)C)cc2)C(C)(C)CCC1`, in data set [1], the negative-log Kd (pKd) is 6.88.

The values above are taken from ChEMBL document CHEMBL5518239, “Recent Advances on Small-Molecule Inhibitors of Lipocalin-like Proteins” (J Med Chem, 2024).
